Measured values reported in US12473584B2, “Method for detecting the presence, identification and quantification in a blood sample of anticoagulants which are blood coagulation enzymes inhibitors, and means for the implementation thereof” (DIAGNOSTICA STAGO, priority 2018, dated 2025).

Molecular target: T1, bovine factor Xa (Bos taurus, UniProt P00743)
T1 construct: (bovine factor Xa); purchased Stago (Diagnostica Stago) STA®—Liquid Anti-Xa commercial kit (catalogue number not given)
Experiment: competitive enzymatic assay, enzyme-substrate reaction (universal methodology, STA-Liquid Anti-Xa kit)
Format: biochemical
Conditions: bovine factor Xa [E]≈10 nM, substrate [S]≈482 μM, 37° C.
Experimental: In accordance with this particular embodiment, the in vitro measurement for the detection, the identification, and the quantification of synthetic inhibitors of factor Xa was carried out in accordance with the following principle: • 25 μL of a plasma sample suspected of containing a heparin or an anti-Xa DOAC was diluted in 25 μL of Owren Koller buffer (TOK), then placed in a consumable; • 150 μL of “Substrate” reagent (MAPA-Gly-Arg-pNA) (reagent in the STA®—Liquid Anti-Xa commercial kit) specific for factor Xa was added to the reaction mixture; • an incubation step of 240 seconds raised the reaction mixture to 37° C.; • 150 μL of the reagent “F. Xa” (bovine factor Xa) (reagent in the STA®—Liquid Anti-Xa commercial kit) was added to the reaction mixture, thereby initiating competition between the inhibition reaction and the enzymatic reaction; • the measurement per se was then carried out over 156 seconds: factor Xa transforms the substrate into product while at the same time being inhibited by the heparin or the DOAC if they are present in the sample. […]

T1 sequence (P00743 234-492 limits assumed): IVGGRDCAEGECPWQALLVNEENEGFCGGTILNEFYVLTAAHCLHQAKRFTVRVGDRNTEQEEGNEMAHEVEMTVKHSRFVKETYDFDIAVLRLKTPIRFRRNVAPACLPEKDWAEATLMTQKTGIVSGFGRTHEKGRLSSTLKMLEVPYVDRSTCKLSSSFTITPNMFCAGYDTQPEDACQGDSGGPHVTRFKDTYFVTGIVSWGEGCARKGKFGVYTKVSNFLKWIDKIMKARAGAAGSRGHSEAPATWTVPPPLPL
T1 sequence (P00743 41-180 limits assumed): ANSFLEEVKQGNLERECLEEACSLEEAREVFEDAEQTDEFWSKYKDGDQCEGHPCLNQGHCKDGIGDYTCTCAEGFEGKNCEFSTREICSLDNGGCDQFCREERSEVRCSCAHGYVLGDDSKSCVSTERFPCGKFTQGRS

Substance: MAPA-Gly-Arg-pNA
- Michaelis constant KM associated with the enzyme-substrate reaction: ~500 µM
- catalytic constant kcat associated with the enzyme-substrate reaction: approximately 400 s-1
